Source: patent US9695155B2, “Herbicidal substituted pyrimidinyloxy benzene compounds” (E. I. DU PONT DE NEMOURS AND COMPANY, priority 2013, dated 2017)

What was measured:
johnsongrass = assay: Test C postemergence; format: in vivo, Sorghum halepense
Outline: (§1)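 Visual ratings on a 0–100 scale (100 = complete control) were made versus untreated controls after 13–15 greenhouse days. Chemicals in a surfactant-containing non-phytotoxic solvent were applied either preemergence to seeds in loam–sand soil or postemergence to 1- to 4-leaf plants 2–18 cm tall.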

barnyardgrass [1] = assay: Test B flooded paddy test; format: in vivo, Echinochloa crus-galli; settings: Echinochloa crus-galli; Flood, 250 g ai/ha; 0 to 100 scale where 0 is no effect and 100 is complete control; read-out: Plant response rating, Barnyardgrass
Outline: (§2)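 Compound added straight to paddy water, with pots kept flooded 3 cm above soil, on plants grown to the 2-leaf stage. Visual scoring 0-100 (100 = complete control) against untreated controls after 13 to 15 greenhouse days.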

large (Lg) crabgrass [2] = assay: Test A postemergence; format: in vivo, Digitaria sanguinalis; settings: 0 to 100 scale where 0 is no effect and 100 is complete control
Outline: (§3)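 Visual injury scored 0–100 (100 = complete control) against untreated controls about 10 days after treatment in a greenhouse. Test chemicals, formulated with surfactant in non-phytotoxic solvent, were sprayed on soil preemergence or on 2-10 cm, one- to two-leaf plants postemergence.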

morningglory [3] = assay: Test A preemergence; format: in vivo, Ipomoea spp.
Outline: as §3

blackgrass [4] = assay: Test C preemergence; format: in vivo, Alopecurus myosuroides; settings: Alopecurus myosuroides, pre-emergence
Outline: as §1

Heteranthera limosa = assay: Test B flooded paddy test; format: in vivo; settings: Heteranthera limosa, Flood, 250 g ai/ha; 0 to 100 scale where 0 is no effect and 100 is complete control; read-out: Plant response rating, Ducksalad
Outline: as §2

wheat, winter = assay: Test C preemergence; format: in vivo, Triticum aestivum; settings: Triticum aestivum, pre-emergence, preemergence, read-out: Wheat plant response rating
Outline: as §1

wild oat = assay: Test C postemergence; format: in vivo, Avena fatua
Outline: as §1

barnyardgrass [5] = assay: Test A preemergence; format: in vivo, Echinochloa crus-galli; settings: Echinochloa crus-galli, pre-emergence, 240 h, 0 to 100 scale where 0 is no effect and 100 is complete control
Outline: as §3

large (Lg) crabgrass [6] = assay: Test A preemergence; format: in vivo, Digitaria sanguinalis; settings: Digitaria sanguinalis, pre-emergence, 240 h, 0 to 100 scale where 0 is no effect and 100 is complete control
Outline: as §3

wheat = assay: Test A postemergence; format: in vivo, Triticum aestivum; settings: Triticum aestivum, post-emergence, 240 h, 0 to 100 scale where 0 is no effect and 100 is complete control
Outline: as §3

Italian ryegrass = assay: Test C preemergence; format: in vivo, Lolium multiflorum; settings: Lolium multiflorum, pre-emergence, preemergence, read-out: Ryegrass, Italian plant response rating
Outline: as §1

corn = assay: Test A preemergence; format: in vivo, Zea mays; settings: Zea mays, pre-emergence, 240 h, 0 to 100 scale where 0 is no effect and 100 is complete control
Outline: as §3

morningglory [7] = assay: Test A postemergence; format: in vivo, Ipomoea spp.; settings: 0 to 100 scale where 0 is no effect and 100 is complete control
Outline: as §3

large (Lg) crabgrass [8] = assay: Test C preemergence; format: in vivo, Digitaria sanguinalis; settings: Digitaria sanguinalis, pre-emergence
Outline: as §1

blackgrass [9] = assay: Test C postemergence; format: in vivo, Alopecurus myosuroides; settings: Alopecurus myosuroides, post-emergence
Outline: as §1

[10] = 31 g ai/ha, postemergence, visual rating, scale 0 to 100 (0 no effect, 100 complete control), 13 to 15 days
[11] = 16 g ai/ha, scale 0 to 100 (0 no effect, 100 complete control)
[12] = 62 g ai/ha, scale 0 (no effect) to 100 (complete control)
[13] = 125 g ai/ha, scale 0 (no effect) to 100 (complete control)

SMILES: FC(F)(F)c1cn(-c2ccccc2Oc2ncc(Cl)cn2)nn1 [Compound 166, 5-chloro-2-[2-[4-(trifluoromethyl)-1H-1,2,3-triazol-1-yl]phenoxy]pyrimidine]
- Johnsongrass plant response rating (johnsongrass; [10]): 5
- pest or weed control at 16 g/ha (johnsongrass; Sorghum halepense, post-emergence, 16 g ai/ha, postemergence, 0 is no effect, 100 is complete control, read-out: Plant response rating (0 to 100), Johnsongrass): 5%
- pest or weed control at 125 g/ha (johnsongrass; Sorghum halepense, post-emergence, 125 g ai/ha, postemergence, visual rating, scale 0 to 100 (0 no effect, 100 complete control), read-out: Plant response rating, Johnsongrass): 5%
- pest or weed control at 62 g/ha (johnsongrass; Sorghum halepense, post-emergence, Postemergence, 62 g ai/ha, scale 0 to 100 (0 no effect, 100 complete control), read-out: Plant response rating, Johnsongrass): 5%
- pest or weed control at 250 g/ha (barnyardgrass [1]): 60%
- Crabgrass, Large plant response rating (large (Lg) crabgrass [2]; 125 g ai/ha): 90
- pest or weed control at 500 g/ha (large (Lg) crabgrass [2]; Digitaria sanguinalis, post-emergence, 240 h, 500 g ai/ha, read-out: Plant response rating, Crabgrass, Large): 100%
- Morningglory plant response rating (0 to 100 scale) (morningglory [3]; 125 g ai/ha): 100
- pest or weed control at 500 g/ha (morningglory [3]; Ipomoea, pre-emergence, 240 h, 500 g ai/ha, 0 to 100 scale where 0 is no effect and 100 is complete control, read-out: Morningglory plant response rating): 100%
- pest or weed control at 16 g/ha (blackgrass [4]; 16 g ai/ha, preemergence, scale 0 to 100 (0 no effect, 100 complete control), read-out: Blackgrass plant response rating): 40%
- pest or weed control at 62 g/ha (blackgrass [4]; 62 g ai/ha, preemergence, scale 0 (no effect) to 100 (complete control), read-out: Blackgrass plant response rating): 90%
- pest or weed control at 125 g/ha (blackgrass [4]; 125 g ai/ha, preemergence, scale 0 (no effect) to 100 (complete control), read-out: Blackgrass plant response rating): 100%
- pest or weed control at 31 g/ha (blackgrass [4]; Preemergence, 31 g ai/ha, scale 0 to 100, 0 no effect, 100 complete control, read-out: Plant response rating, Blackgrass): 85%
- pest or weed control at 250 g/ha (Heteranthera limosa): 95%
- plant injury at 16 g/ha (wheat, winter; [11]): 0%
- plant injury at 62 g/ha (wheat, winter; [12]): 60%
- plant injury at 125 g/ha (wheat, winter; [13]): 90%
- Oat, Wild plant response rating (wild oat; [10]): 10
- pest or weed control at 16 g/ha (wild oat; Avena fatua, post-emergence, 16 g ai/ha, postemergence, 0 is no effect, 100 is complete control, read-out: Plant response rating (0 to 100), Oat, Wild): 5%
- pest or weed control at 125 g/ha (wild oat; Avena fatua, post-emergence, 125 g ai/ha, postemergence, visual rating, scale 0 to 100 (0 no effect, 100 complete control), read-out: Plant response rating, Oat, Wild): 50%
- pest or weed control at 62 g/ha (wild oat; Avena fatua, post-emergence, Postemergence, 62 g ai/ha, scale 0 to 100 (0 no effect, 100 complete control), read-out: Plant response rating, Oat, Wild): 35%
- pest or weed control at 125 g/ha (barnyardgrass [5]; 125 g ai/ha, read-out: Plant response rating, Barnyardgrass): 90%
- pest or weed control at 500 g/ha (barnyardgrass [5]; 500 g ai/ha, read-out: Barnyardgrass plant response rating): 100%
- pest or weed control at 125 g/ha (large (Lg) crabgrass [6]; 125 g ai/ha, read-out: Plant response rating, Crabgrass, Large): 100%
- pest or weed control at 500 g/ha (large (Lg) crabgrass [6]; 500 g ai/ha, read-out: Crabgrass, Large plant response rating): 100%
- plant injury at 125 g/ha (wheat; 125 g ai/ha, read-out: Wheat plant response rating): 60%
- plant injury at 500 g/ha (wheat; 500 g ai/ha, read-out: Plant response rating, Wheat): 70%
- pest or weed control at 16 g/ha (Italian ryegrass; [11]): 5%
- pest or weed control at 62 g/ha (Italian ryegrass; [12]): 90%
- pest or weed control at 125 g/ha (Italian ryegrass; [13]): 90%
- Corn plant response rating (crop injury, 0 = no effect, 100 = complete kill) at 125 g/ha (corn; 125 g ai/ha): 30%
- plant injury at 500 g/ha (corn; 500 g ai/ha, read-out: Corn plant response rating): 30%
- Morningglory plant response rating (morningglory [7]; 125 g ai/ha): 100
- pest or weed control at 500 g/ha (morningglory [7]; Ipomoea, post-emergence, 240 h, 500 g ai/ha, read-out: Plant response rating, Morningglory): 100%
- pest or weed control at 16 g/ha (large (Lg) crabgrass [8]; 16 g ai/ha, preemergence, scale 0 to 100 (0 no effect, 100 complete control), read-out: Crabgrass, Large plant response rating): 100%
- pest or weed control at 62 g/ha (large (Lg) crabgrass [8]; 62 g ai/ha, preemergence, scale 0 (no effect) to 100 (complete control), read-out: Crabgrass, Large plant response rating): 100%
- pest or weed control at 125 g/ha (large (Lg) crabgrass [8]; 125 g ai/ha, preemergence, scale 0 (no effect) to 100 (complete control), read-out: Crabgrass, Large plant response rating): 100%
- pest or weed control at 31 g/ha (large (Lg) crabgrass [8]; Preemergence, 31 g ai/ha, scale 0 to 100, 0 no effect, 100 complete control, read-out: Plant response rating, Crabgrass, Large): 100%
- pest or weed control at 16 g/ha (blackgrass [9]; 16 g ai/ha, postemergence, 0 is no effect, 100 is complete control, read-out: Plant response rating (0 to 100), Blackgrass): 5%
- pest or weed control at 31 g/ha (blackgrass [9]; 31 g ai/ha, postemergence, visual rating, scale 0 to 100 (0 no effect, 100 complete control), 13 to 15 days, read-out: Blackgrass plant response rating): 10%
- pest or weed control at 125 g/ha (blackgrass [9]; 125 g ai/ha, postemergence, visual rating, scale 0 to 100 (0 no effect, 100 complete control), read-out: Plant response rating, Blackgrass): 60%
- pest or weed control at 62 g/ha (blackgrass [9]; Postemergence, 62 g ai/ha, scale 0 to 100 (0 no effect, 100 complete control), read-out: Plant response rating, Blackgrass): 45%
